How the values were obtained:
[1] = Distribution coefficient, log D at pH 7.4; conditions: octanol/water
[2] = Dissociation constant, pKa of the compound; format: physicochemical
[3] = Inhibition of hog gastric mucosa H/+K+ ATPase; format: tissue-based
Gastric gland = test: Inhibition of gastric acid secretion in rabbit gastric gland assessed as accumulation of 14C]-[…]; format: functional, tissue-based; conditions: Oryctolagus cuniculus

Compound | logD [1] | pKa [2] | Log IC50 [3] | IC50 (Gastric gland) [µM]
CCc1cccc(C)c1CNc1cc(C(=O)N(C)C)nc2c(CO)c(C)[nH]c12 | 3.27 | 7.07 | -5.7 | 50.1
Cc1cccc(C)c1CNc1cc(C(=O)N(C)C)nc2c(CO)c(C)[nH]c12 | 2.95 | 7.2 | -5.6 | 63.1
Cc1cccc(C)c1CNc1cc(C(=O)N(C)C)nc2c(Br)c(C)[nH]c12 | > 4.8 | 6.02 | -5 | 3.16
CCc1cccc(C)c1CNc1cc(C(=O)N(C)C)nc2c(Br)c(C)[nH]c12 | > 4.8 | 5.84 | -5 | 10
Cc1cccc(C)c1CNc1cc(C(=O)N(C)C)nc2c(CO)c(C)n(Cc3ccccc3)c12 | 3.87 | 6.52 | -4.6 | 10
Cc1cccc(C)c1CNc1cc(C(=O)N(C)C)nc2c(C)c(C)n(C)c12 | 3.53 | 7.13 | -4.6 | 15.8
CNC(=O)c1cc(NCc2c(C)cccc2C)c2[nH]c(C)c(Br)c2n1 | – | 7.39 | < -4 | 5.01
CCc1cccc(C)c1CNc1cc(C(=O)N(C)C)nc2cc(C)[nH]c12 | 4.1 | 7.39 | -5.9 | 3.16
Cc1cccc(C)c1CNc1cc(C(=O)N(C)C)nc2c(C)c(C)n(CC(C)O)c12 (centres undefined) | 3.4 | 7.19 | -4.8 | 3.98

Stronger by IC50 (Gastric gland), values ahead:

logD [1] | pKa [2] | Log IC50 [3] | IC50 (Gastric gland) [µM] | Compound
5.2 | 6.86 | -5.1 | 1 | Cc1cccc(C)c1CNc1cc(C(=O)N(C)C)nc2c(C)c(C)n(Cc3ccccc3)c12
4.6 | 7.57 | -6.6 | 0.251 | CCc1cccc(C)c1CNc1cc(C(=O)N(C)C)nc2c(C)c(C)[nH]c12
3.62 | 7.3 | -6.1 | 2.51 | Cc1cc2nc(C(=O)N(C)C)cc(NCc3c(C)cccc3C)c2[nH]1
2.96 | 7.33 | -5.5 | 1.58 | CNC(=O)c1cc(NCc2c(C)cccc2C)c2[nH]c(C)cc2n1
– | 7.56 | -6.9 | 0.251 | Cc1cccc(C)c1CNc1cc(C(=O)N(C)C)nc2c(C)c(C)[nH]c12

— ChEMBL document CHEMBL1143142, “5-Substituted 1H-pyrrolo[3,2-b]pyridines as inhibitors of gastric acid secretion” (Bioorg Med Chem, 2008)
